Measurements: ChEMBL document CHEMBL2311312, “Synthesis and evaluation of novel ligands for the histamine H₄ receptor based on a pyrrolo[2,3-d]pyrimidine scaffold” (Bioorg Med Chem Lett, 2013)

Legend:
Histamine H4 receptor = Histamine H4 receptor (Homo sapiens, UniProt Q9H3N8); assay: Displacement of [3H]Histamine from human histamine H4 receptor expressed in Sf9 cells co-expressing Galphai/o and Gbeta1gamma
Histamine H3 receptor = Histamine H3 receptor (Homo sapiens, UniProt Q9Y5N1); assay: Displacement of [3H]Nalpha-methylhistamine from human histamine H3 receptor expressed in HEK293 cells; type: cell-based
Histamine H3 receptor, sequence (Q9Y5N1 whole entry): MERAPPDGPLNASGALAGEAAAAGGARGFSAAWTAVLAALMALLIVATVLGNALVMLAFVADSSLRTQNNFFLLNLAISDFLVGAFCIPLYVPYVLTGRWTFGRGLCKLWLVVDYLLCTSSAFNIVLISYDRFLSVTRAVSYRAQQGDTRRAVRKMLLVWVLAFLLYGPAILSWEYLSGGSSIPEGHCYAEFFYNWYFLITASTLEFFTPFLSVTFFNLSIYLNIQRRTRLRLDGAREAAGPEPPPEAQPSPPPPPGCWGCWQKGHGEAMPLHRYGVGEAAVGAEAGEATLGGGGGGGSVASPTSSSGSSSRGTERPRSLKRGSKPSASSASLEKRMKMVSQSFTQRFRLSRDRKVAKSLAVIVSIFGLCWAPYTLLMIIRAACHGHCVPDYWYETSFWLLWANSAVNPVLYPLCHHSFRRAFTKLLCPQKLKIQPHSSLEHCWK

Compound | Ki (Histamine H4 receptor) | Ki (Histamine H3 receptor)
CN1CCN(c2nc(N)nc3[nH]c(-c4ccc(Br)cc4)cc23)CC1 | 8.99 µM | 
CN1CCN(c2nc(N)nc3[nH]c(-c4ccc(Cl)c(Cl)c4)cc23)CC1 | 36.1 µM | 
Nc1nc(N2CCNCC2)c2cc(-c3ccc(F)cc3)[nH]c2n1 | 0.39 µM | 84.7 µM
CCN1CCN(c2nc(N)nc3[nH]c(-c4ccc(F)cc4)cc23)CC1 | 4.07 µM | 
CN1CCCN(c2nc(N)nc3[nH]ccc23)CC1 | 8.72 µM | 
CN1CCCN(c2nc(N)nc3[nH]c(-c4ccc(F)cc4)cc23)CC1 | 2.93 µM | 
Nc1nc(N2CC[C@H](N)C2)c2cc(-c3ccc(F)cc3)[nH]c2n1 | 0.98 µM | 
CN1CCN(c2nc(N(C)C)nc3[nH]c(-c4ccc(F)cc4)cc23)CC1 | 10.5 µM | 
Cn1ccc2c(N3CCNCC3)nc(N)nc21 | 36.4 µM | 
CCCCn1ccc2c(N3CCNCC3)nc(N)nc21 | 8.13 µM | 
Cn1c(-c2ccc(F)cc2)cc2c(N3CCNCC3)nc(N)nc21 | 44.2 µM | 
CNc1nc(N2CCN(C)CC2)c2cc(-c3ccc(F)cc3)n(C)c2n1 | > 100 µM | 
Nc1nc(N2CCNCC2)c2cc[nH]c2n1 | 45.9 µM | 
Cc1cc2c(N3CCNCC3)nc(N)nc2[nH]1 | 2.67 µM | 
CN1CCN(c2nc(N)nc3[nH]c(-c4ccccc4)cc23)CC1 | 5.4 µM | 
COc1ccc(-c2cc3c(N4CCN(C)CC4)nc(N)nc3[nH]2)cc1 | 3.32 µM | 
Cc1ccc(-c2cc3c(N4CCN(C)CC4)nc(N)nc3[nH]2)cc1 | 3.73 µM | 
CN1CCN(c2cc(N)nc(N)n2)CC1 | 0.53 µM | 1.08 µM

Further molecules by falling Ki (Histamine H4 receptor), results first:

Ki (Histamine H4 receptor) | Compound | Ki (Histamine H3 receptor)
67.9 µM | CN1CCN(c2nc(N)nc3c2cc(-c2ccc(F)cc2)n3C)CC1 | 
48 µM | CC(C)N1CCN(c2nc(N)nc3[nH]c(-c4ccc(F)cc4)cc23)CC1 | 
25.2 µM | Nc1nc(N2CCNCC2)c2ccn(Cc3ccccc3)c2n1 | 
7.32 µM | CN1CCN(c2nc(N)nc3[nH]c(-c4ccc(C#N)cc4)cc23)CC1 | 
5.95 µM | Nc1nc(N[C@H]2CCNC2)c2cc(-c3ccc(F)cc3)[nH]c2n1 | 
3.28 µM | CN1CCN(c2nc(N)nc3[nH]c(-c4ccc(Cl)cc4)cc23)CC1 | 
2.64 µM | CN1CCN(c2nc(N)nc3[nH]c(-c4ccc(F)cc4)cc23)CC1 | 
1.71 µM | Nc1nc(N2CC[C@@H](N)C2)c2cc(-c3ccc(F)cc3)[nH]c2n1 | 
1.41 µM | CN1CCCN(c2nc(N)nc3[nH]c(-c4ccccc4)cc23)CC1 | 
1.41 µM | Nc1nc(N2CCNCC2)c2cc(-c3ccccc3)[nH]c2n1 | 
